Assay results: publication PMC2688463 (Journal of medicinal chemistry, 2008)

Experiments:
[1] = test system: SK-OV-3 ovarian cancer cell line; experiment: Cell growth assay; format: cell-based, human
[2] = test system: MDA-MB-231 breast cancer cell line; experiment: Cell growth assay; format: cell-based, human
MDA-MB-231 cell line = experiment: Apoptosis assay; format: cell-based, human; settings: 100 nM, 48 hours
[3] = molecular target: recombinant human XIAP BIR3 protein (Homo sapiens, UniProt P98170); experiment: Cell-free caspase-9 functional assay; format: biochemical; settings: at concentrations as high as 100 μM
recombinant human XIAP BIR3 protein, sequence (P98170 241-356): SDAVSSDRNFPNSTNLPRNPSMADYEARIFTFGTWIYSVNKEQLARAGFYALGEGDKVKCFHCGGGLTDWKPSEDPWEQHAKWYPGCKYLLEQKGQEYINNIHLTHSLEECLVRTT

CC[C@H](N)C(=O)N[C@H]1CCCC[C@H]2CC[C@@H](C(=O)NC(c3ccccc3)c3ccccc3)N2C1=O [Compound 17, (3S,6S,11S)-6-((S)-2-Amino-butyrylamino)-5-oxo-decahydro-pyrrolo[1,2-α]azocine-3-carboxylic acid benzhydryl-amide]
cellular activity (cell growth inhibition) [1]: weak cellular activity
cellular activity (cell growth inhibition) [2]: weak cellular activity

CN[C@@H](C)C(=O)N[C@H]1CCCC[C@H]2CC[C@@H](C(=O)NC(c3ccccc3)c3ccccc3)N2C1=O [Compound 20, (3S,6S,11S)-6-((S)-2-Methylamino-propionylamino)-5-oxo-decahydro-pyrrolo[1,2-α]azocine-3-carboxylic acid benzhydryl-amide]
induction of apoptosis (MDA-MB-231 cell line): robust apoptosis

CC[C@H](NC)C(=O)N[C@H]1CCCC[C@H]2CC[C@@H](C(=O)NC(c3ccccc3)c3ccccc3)N2C1=O [Compound 21, (3S,6S,11S)-6-((S)-2-Methylamino-butyrylamino)-5-oxo-decahydro-pyrrolo[1,2-α]azocine-3-carboxylic acid benzhydryl-amide]
induction of apoptosis (MDA-MB-231 cell line): robust apoptosis

C[C@H](O)C(=O)N[C@H]1CCCC[C@H]2CC[C@@H](C(=O)NC(c3ccccc3)c3ccccc3)N2C1=O [Compound 24]
times less potent than compound 25 in cell growth inhibition [1]: > 30 times
times less potent than compound 25 in cell growth inhibition [2]: > 30 times
restoration of caspase-9 activity [3]: no significant effect
